Measured values as given in patent US8471005B2 (Cephalon, Inc., priority 2008, dated 2013).
Read-outs that look alike come from different tables or passages of the source.

How the values were obtained:
[1] = target: T1, ALK (Homo sapiens, UniProt Q9UM73); assay: ALK Kinase Assay (ELISA/TRF, PLC-γ substrate); format: biochemical; conditions: read-out: ALK Potency
T1 construct: host or cells: baculovirus expression system
Outline: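 Wells were coated with 10 μg/mL phospholipase C-γ substrate in TBS, and the reaction was started by adding 30 ng/ml ALK enzyme and run at 37° C for 15 minutes. Phosphorylated product was detected with Eu-N1-labeled PT66 antibody, and IC50 values came from sigmoidal variable-slope fits of percent inhibition against log concentration.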

[2] = target: T2, JAK2 (Homo sapiens, UniProt O60674); assay: Recombinant Human JAK2 Kinase Assay (TRF); format: biochemical; conditions: read-out: JAK2 Potency
T2 construct: host or cells: baculovirus expression system
T2 sequence (O60674 whole entry): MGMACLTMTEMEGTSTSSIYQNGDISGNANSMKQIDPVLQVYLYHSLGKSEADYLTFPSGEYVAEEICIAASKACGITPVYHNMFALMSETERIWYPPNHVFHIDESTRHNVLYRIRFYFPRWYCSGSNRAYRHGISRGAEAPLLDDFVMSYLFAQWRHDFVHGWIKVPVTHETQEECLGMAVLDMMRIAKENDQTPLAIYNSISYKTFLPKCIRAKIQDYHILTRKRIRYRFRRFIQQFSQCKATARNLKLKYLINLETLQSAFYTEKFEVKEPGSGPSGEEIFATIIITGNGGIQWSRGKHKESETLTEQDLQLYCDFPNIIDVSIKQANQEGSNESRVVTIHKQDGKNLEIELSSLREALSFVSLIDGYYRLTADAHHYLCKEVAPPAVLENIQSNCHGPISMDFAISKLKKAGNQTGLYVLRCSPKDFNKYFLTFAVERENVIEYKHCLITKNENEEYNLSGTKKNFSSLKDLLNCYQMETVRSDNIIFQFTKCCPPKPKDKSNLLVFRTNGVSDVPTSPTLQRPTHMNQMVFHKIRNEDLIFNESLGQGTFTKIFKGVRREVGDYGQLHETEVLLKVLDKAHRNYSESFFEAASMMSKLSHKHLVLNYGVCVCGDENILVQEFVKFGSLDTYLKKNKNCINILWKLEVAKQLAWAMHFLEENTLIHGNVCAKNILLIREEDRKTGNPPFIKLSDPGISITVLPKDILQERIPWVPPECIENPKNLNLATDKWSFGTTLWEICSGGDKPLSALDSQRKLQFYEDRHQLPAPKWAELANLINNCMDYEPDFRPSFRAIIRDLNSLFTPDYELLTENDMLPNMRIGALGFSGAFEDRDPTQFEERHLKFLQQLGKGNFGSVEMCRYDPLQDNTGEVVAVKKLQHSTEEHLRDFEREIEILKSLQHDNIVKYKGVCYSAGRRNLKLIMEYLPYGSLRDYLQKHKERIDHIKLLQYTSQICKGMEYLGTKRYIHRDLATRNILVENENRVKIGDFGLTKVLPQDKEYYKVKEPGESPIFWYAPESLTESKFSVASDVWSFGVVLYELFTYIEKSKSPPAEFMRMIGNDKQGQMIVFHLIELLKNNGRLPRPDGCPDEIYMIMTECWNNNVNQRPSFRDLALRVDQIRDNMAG
Outline: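 TRF read-out: Eu-N1 PY100 anti-phosphotyrosine antibody detects product. Enzyme is baculovirus-expressed JAK2 at 15 ng/ml; substrate is a biotinyl 15-mer peptide bound to Neutravidin-coated wells. Buffer 20 mM HEPES pH 7.2, 0.2 μM ATP, 1 mM MnCl2, 0.1% BSA, 2.5% DMSO final; 20 min, RT.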

[3] = ALK kinase inhibition, 1 μM ATP
[4] = JAK2 kinase inhibition, 0.2 μM ATP

T1 sequence (Q9UM73 19-1620): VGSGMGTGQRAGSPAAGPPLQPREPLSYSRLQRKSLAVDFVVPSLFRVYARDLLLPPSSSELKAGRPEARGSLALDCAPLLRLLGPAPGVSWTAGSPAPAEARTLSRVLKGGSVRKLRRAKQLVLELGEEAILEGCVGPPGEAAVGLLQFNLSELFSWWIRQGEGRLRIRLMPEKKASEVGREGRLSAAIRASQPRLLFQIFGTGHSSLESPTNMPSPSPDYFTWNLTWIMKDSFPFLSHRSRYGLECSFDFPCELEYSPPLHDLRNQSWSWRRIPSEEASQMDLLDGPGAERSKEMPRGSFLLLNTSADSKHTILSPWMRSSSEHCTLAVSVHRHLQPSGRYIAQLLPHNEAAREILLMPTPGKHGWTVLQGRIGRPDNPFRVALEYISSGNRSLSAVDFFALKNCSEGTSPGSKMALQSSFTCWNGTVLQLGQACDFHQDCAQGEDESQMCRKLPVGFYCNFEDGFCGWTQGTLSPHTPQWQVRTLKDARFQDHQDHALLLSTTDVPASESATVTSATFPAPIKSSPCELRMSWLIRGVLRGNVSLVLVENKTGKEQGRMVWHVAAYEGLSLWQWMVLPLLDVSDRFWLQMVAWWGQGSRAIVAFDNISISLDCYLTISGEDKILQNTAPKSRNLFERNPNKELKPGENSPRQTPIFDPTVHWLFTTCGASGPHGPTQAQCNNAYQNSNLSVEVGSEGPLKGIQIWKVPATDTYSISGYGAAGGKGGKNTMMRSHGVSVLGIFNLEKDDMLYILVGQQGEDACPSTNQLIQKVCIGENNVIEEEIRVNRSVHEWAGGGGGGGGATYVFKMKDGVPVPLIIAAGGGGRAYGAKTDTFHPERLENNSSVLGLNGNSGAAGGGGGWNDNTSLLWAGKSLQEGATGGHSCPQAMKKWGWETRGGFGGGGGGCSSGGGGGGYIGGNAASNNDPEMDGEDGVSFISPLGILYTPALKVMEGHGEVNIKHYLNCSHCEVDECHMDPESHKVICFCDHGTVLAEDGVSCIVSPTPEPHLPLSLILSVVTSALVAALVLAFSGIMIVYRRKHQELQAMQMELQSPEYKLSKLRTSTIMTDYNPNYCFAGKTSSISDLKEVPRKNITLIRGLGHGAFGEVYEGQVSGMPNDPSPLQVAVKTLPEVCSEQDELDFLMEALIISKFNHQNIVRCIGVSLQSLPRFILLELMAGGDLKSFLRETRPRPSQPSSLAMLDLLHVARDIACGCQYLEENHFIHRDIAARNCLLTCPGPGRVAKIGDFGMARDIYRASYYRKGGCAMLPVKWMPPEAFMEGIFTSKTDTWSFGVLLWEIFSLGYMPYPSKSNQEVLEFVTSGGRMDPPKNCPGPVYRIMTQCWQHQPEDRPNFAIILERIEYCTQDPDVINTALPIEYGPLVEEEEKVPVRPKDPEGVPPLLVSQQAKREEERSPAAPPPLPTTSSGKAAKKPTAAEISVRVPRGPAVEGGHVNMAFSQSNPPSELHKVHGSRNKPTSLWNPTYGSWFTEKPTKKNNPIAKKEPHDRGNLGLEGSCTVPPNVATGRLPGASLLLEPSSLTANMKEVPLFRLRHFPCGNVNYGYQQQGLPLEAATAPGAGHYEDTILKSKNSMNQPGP

Compound	IC50 [1, 3]	IC50 [2, 4]	IC50 ([1]; ALK Kinase Inhibition)	IC50 ([2]; JAK2 Kinase Inhibition)
COc1ccc(-c2ccn3nc(Nc4ccc(N5CCN(C)CC5)cc4)ncc23)cc1 [Example 724, [5-(4-Methoxy-phenyl)-pyrrolo[2,1-f][1,2,4]triazin-2-yl]-[4-(4-methyl-piperazin-1-yl)-phenyl]-amine]	> 10000 nM	> 10000 nM		
COc1cc(CCN2CCOCC2)ccc1Nc1ncc2ccc(-c3ccccc3N(C)S(C)(=O)=O)n2n1 [Example 493, N-(2-{2-[2-Methoxy-4-(2-morpholin-4-yl-ethyl)-phenylamino]-pyrrolo[2,1-f][1,2,4]triazin-7-yl}-phenyl)-N-methyl-methanesulfonamide]	< 100 nM	100 to 1000 nM		
COc1ccc(-c2ccc3cnc(Nc4ccc(OC)c(N5CCOCC5)c4)nn23)cn1 [Example 397, (4-Methoxy-3-morpholin-4-yl-phenyl)-[7-(6-methoxy-pyridin-3-yl)-pyrrolo[2,1-f][1,2,4]triazin-2-yl]-amine]			100 to 1000 nM	< 100 nM
CN1CCN(c2ccc(Nc3ncc4cc5ccccc5n4n3)cc2)CC1 [Example 263, [4-(4-Methyl-piperazin-1-yl)-phenyl]-[1,2,4]triazino[1,6-a]indol-2-yl-amine]			100 to 1000 nM	< 100 nM
COc1ccccc1-c1ccc2cnc(Nc3ccc(OCCN4CCCC4)cc3)nn12 [Example 121, [7-(2-Methoxy-phenyl)-pyrrolo[2,1-f][1,2,4]triazin-2-yl]-[4-(2-pyrrolidin-1-yl-ethoxy)-phenyl]-amine]			< 100 nM	< 100 nM
COc1cc(N2CCN(C[C@H](C)O)CC2)ccc1Nc1ncc2ccc(-c3cc(Cl)ccc3OC)n2n1 [Example 755, (S)-1-(4-{4-[7-(5-Chloro-2-methoxy-phenyl)-pyrrolo[2,1-f][1,2,4]triazin-2-ylamino]-3-methoxy-phenyl}-piperazin-1-yl)-propan-2-ol]	< 100 nM	< 100 nM		
NC(=O)CN1CCC(c2ccc(Nc3ncc4ccc(-c5cccc6cccnc56)n4n3)cc2)CC1 [Example 514, 2-{4-[4-(7-Quinolin-8-yl-pyrrolo[2,1-f][1,2,4]triazin-2-ylamino)-phenyl]-piperidin-1-yl}-acetamide]	1000 to 10000 nM	< 100 nM		
CN1CCC2(CCc3cc(Nc4ncc5ccc(-c6cccc(NS(C)(=O)=O)c6)n5n4)ccc3O2)CC1 [Example 378]			< 100 nM	< 100 nM
7-(2-Methoxy-phenyl)-2-(2-methoxy-4-piperazin-1-ylmethyl-phenoxy)-pyrrolo[2,1-f][1,2,4]triazine [Example 1238]	< 100 nM	100 to 1000 nM		
CC(C)(C)NS(=O)(=O)c1cccc(-c2ccc3cnc(Nc4ccc5ncsc5c4)nn23)c1 [Example 573, 3-[2-(Benzothiazol-6-ylamino)-pyrrolo[2,1-f][1,2,4]triazin-7-yl]-N-tert-butyl-benzenesulfonamide]	> 10000 nM	< 100 nM		

The remaining lines, values ahead:

IC50 [1, 3]	IC50 [2, 4]	IC50 ([1]; ALK Kinase Inhibition)	IC50 ([2]; JAK2 Kinase Inhibition)	Compound
1000 to 10000 nM	< 100 nM			Cn1cc(-c2ccc3cnc(Nc4cccc(OCCN5CCOCC5)c4)nn23)cn1 [Example 1004, [7-(1-Methyl-1H-pyrazol-4-yl)-pyrrolo[2,1-f][1,2,4]triazin-2-yl]-[3-(2-morpholin-4-yl-ethoxy)-phenyl]-amine]
> 10000 nM	< 100 nM			COc1ccc(-c2ccc3cnc(Nc4ccc5c(c4)N(S(C)(=O)=O)CCC5)nn23)cn1 [Example 1061, (1-Methanesulfonyl-1,2,3,4-tetrahydro-quinolin-7-yl)-[7-(6-methoxy-pyridin-3-yl)-pyrrolo[2,1-f][1,2,4]triazin-2-yl]-amine]
< 100 nM	< 100 nM			CN1CCc2cc(Nc3ncc4ccc(-c5cccc(S(=O)(=O)NC(C)(C)C)c5)n4n3)ccc2C1 [Example 921, N-tert-Butyl-3-[2-(2-methyl-1,2,3,4-tetrahydro-isoquinolin-6-ylamino)-pyrrolo[2,1-f][1,2,4]triazin-7-yl]-benzenesulfonamide]
		100 to 1000 nM	< 100 nM	CC(C)(C)NS(=O)(=O)c1cccc(-c2ccc3cnc(Nc4ccc(C5CNCCN5)cc4)nn23)c1 (stereo not drawn) [Example 1528, N-tert-Butyl-3-[2-(4-piperazin-2-yl-phenylamino)-pyrrolo[2,1-f][1,2,4]triazin-7-yl]-benzenesulfonamide]
> 10000 nM	< 100 nM			Cn1cnc2cc(Nc3ncc4ccc(-c5cccc(S(=O)(=O)NC(C)(C)C)c5)n4n3)ccc21 [Example 1332, N-tert-Butyl-3-[2-(1-methyl-1H-benzimidazol-5-ylamino)-pyrrolo[2,1-f][1,2,4]triazin-7-yl]-benzenesulfonamide]
		1000 to 10000 nM	< 100 nM	CN(C)C(=O)CN1CCc2ccc(Nc3ncc4ccc(Br)n4n3)cc2CC1 [Example 1574]
1000 to 10000 nM	< 100 nM			O=S(=O)(CC1CC1)c1cccc(-c2ccc3cnc(Nc4ccc5[nH]ncc5c4)nn23)c1 [Example 1314]
< 100 nM	< 100 nM			COc1ccccc1-c1ccc2cnc(Nc3ccc(C4CCN(CC(N)=O)CC4)c(OC)c3)nn12 [Example 912, 2-(4-{2-Methoxy-4-[7-(2-methoxy-phenyl)-pyrrolo[2,1-f][1,2,4]triazin-2-ylamino]-phenyl}-piperidin-1-yl)-acetamide]
< 100 nM	< 100 nM			C[C@H](O)CN1CCC(c2ccc(Nc3ncc4ccc(-c5cccc(NS(C)(=O)=O)c5)n4n3)cc2)CC1 [Example 957, N-[3-(2-{4-[1-((S)-2-Hydroxy-propyl)-piperidin-4-yl]-phenylamino}-pyrrolo[2,1-f][1,2,4]triazin-7-yl)-phenyl]-methanesulfonamide]
1000 to 10000 nM	< 100 nM			COc1ccc(-c2ccc3cnc(Nc4ccc(-c5cccnc5)cc4)nn23)cn1 [Example 1088, [7-(6-Methoxy-pyridin-3-yl)-pyrrolo[2,1-f][1,2,4]triazin-2-yl]-(4-pyridin-3-yl-phenyl)-amine]
		1000 to 10000 nM	< 100 nM	CC(=O)N1CCCC(C)(C)c2ccc(Nc3ncc4ccc(-c5cnn(C)c5)n4n3)cc21 [Example 1381, 1-{5,5-Dimethyl-8-[7-(1-methyl-1H-pyrazol-4-yl)-pyrrolo[2,1-f][1,2,4]triazin-2-ylamino]-2,3,4,5-tetrahydro-benzo[b]azepin-1-yl}-ethanone]
> 10000 nM	< 100 nM			CC(C)(C)NS(=O)(=O)c1cccc(-c2ccc3cnc(Nc4ccc5nc(C(F)(F)F)[nH]c5c4)nn23)c1 [Example 1297, N-tert-Butyl-3-[2-(2-trifluoromethyl-3H-benzimidazol-5-ylamino)-pyrrolo[2,1-f][1,2,4]triazin-7-yl]-benzenesulfonamide]
		100 to 1000 nM	< 100 nM	C[C@H](O)CN1CCN(c2cc([S@@+](C)[O-])c(Nc3ncc4ccc(-c5ccccc5N(C)S(C)(=O)=O)n4n3)cc2F)CC1 [Example 1485, (R,S)—N-[2-(2-{5-Fluoro-4-[4-((S)-2-hydroxy-propyl)-piperazin-1-yl]-2-methanesulfinyl-phenylamino}-pyrrolo[2,1-f][1,2,4]triazin-7-yl)-phenyl]-N-methyl-methanesulfonamide]
		100 to 1000 nM	< 100 nM	CN1CCN(c2ccc(Nc3ncc4ccc(-c5ccccc5OCC(=O)N(C)C)n4n3)cc2)CC1 [Example 1403, N,N-Dimethyl-2-(2-{2-[4-(4-methyl-piperazin-1-yl)-phenylamino]-pyrrolo[2,1-f][1,2,4]triazin-7-yl}-phenoxy)-acetamide]
